Experimental data published in patent publication US20070082061A1, “REDUCTION OF SALTINESS WITH SWEETENERS” (priority 2005, published 2007).
Values joined by “and” are separate entries in the source; they are usually repeats but may differ in a detail not shown here. Equal values may be shown once. Read-outs that look alike come from different tables or passages of the source. Values belong to the compound of their own block, whether it stands above or below them. Where a SMILES comes first, the peptide text is derived from it.

Tests used:
[1] = Stability of sweeteners in FLEET PHOSPHO-SODA (Example 1)
Procedure: While it is possible to add the sweetener and/or flavoring a short time before consumption of a phosphate salt bowel cleanser and retain at least a portion of the palatability benefits, one goal of the present bowel cleansing compositions is to provide stable liquids having increased palatability. Thus, numerous sweeteners and flavorings were tested for stability in phosphate salt bowel cleanser.
Sucrose, Saccharin, Sucralose, Aspartame, Ace-K, Thaumatin (Talin), Neohesperidine Dihydrochalcone (NHDC), and Trehalose were tested for stability in FLEET® PHOSPHO-SODA®.

[2] = Taste tests to determine equivalent sweetness of sweeteners in a salty liquid (Example 4); type: in vivo, human
Procedure: Before a preferred sweetener for use in salty liquids could be determined, the amount of each sweetener required to provide an equivalent sweetness was determined. Multiple taste tests were performed comparing various concentrations of Sucralose, Ace-K, the 5:1 Ace-K/Sucralose blend, Saccharin, and sucrose in a salty liquid to determine an equivalent […].

[3] = Sweetener preference in diluted phosphate salt bowel cleanser, forty test subjects (Example 5); type: in vivo, human; conditions: scale 1 to 4, 60 mL phosphate salt bowel cleanser in 355 mL water
Procedure: Each solution was prepared by diluting 60 mL of the phosphate salt bowel cleanser from Example 2 in 355 mL of water and using either 0.05% Ace-K, 0.05% Sucralose, 0.08% saccharin, 0.05% of a 5:1 Ace-K/Sucralose blend, or 15% sucrose as the sweetener.

[4] = Sweetener concentration preference in diluted phosphate salt bowel cleanser, about 35 testers (Example 10); type: in vivo, human; conditions: for preferred sweetener concentration to decrease saltiness: in the phosphate salt bowel cleanser; for Average rating: scale 1 to 4, 4 highly preferred
Procedure: To confirm the correlation of FIG. 1 in a bowel cleanser with multiple sweeteners, approximately 35 testers were asked to select the most palatable solution from five possibilities. Each of the five solutions included 60 mL of the phosphate salt bowel cleanser from Example 2 in 355 mL of water. This solution has an equivalent saltiness to the 2% NaCI/water solution of Example 9. The first of the five solutions lacked any sweetener, while an increasing concentration of sweetener was added to the remaining four. Tests were performed using Sucralose, the 5:1 Ace-K/Sucralose blend, Ace-K, or Saccharin as the sweetener.
Tables 8, 9, 10, and 11, below, present the average test data for each sweetener, respectively.
The sweetener concentration for each data point corresponds to those in Tables 8 through 11, above, with higher values on the X-axis corresponding to higher sweetener concentrations.

[5] = considered to be; cited from earlier work
[6] = Mean acceptability ratings (Likert) of sweetener systems in phosphate salt bowel cleanser, 19 test subjects (Example 6); type: in vivo, human; conditions: at the same 0.38% concentration; systems with Ace-K
Procedure: A comparison between Saccharin/Ace-K and Sucralose/Ace-K was performed to determine which of these two sweetener systems most improved the palatability of a salty bowel cleanser. Table 3, below, provides the mean acceptability ratings for 19 test subjects who tasted 5:1 Saccharin/Ace-K and 5:1 Sucralose/Ace-K sweetener systems in 60 mL of the phosphate salt bowel cleanser from Example 2 in 355 mL of water.

[7] = Preference comparison of sweetened and unsweetened NaCl solutions and phosphate salt bowel cleansers (Example 8); type: in vivo, human
Description: To establish the reliability of the NaCI to bowel cleanser comparison, test subjects were asked to taste sweetened and unsweetened NaCI solutions and sweetened and unsweetened phosphate salt bowel cleansers. In this comparison of the sweetened and unsweetened NaCI solutions, out of 19 test subjects, 17 preferred the 2% NaCI solution that included 0.13% Sucralose. Furthermore, in the preference comparison of the sweetened and unsweetened phosphate salt bowel cleanser, 18 out of 20 test subjects preferred the phosphate salt bowel cleanser including 0.13% Sucralose. Therefore, the palatability increase provided by the Sucralose was similarly observed for the 2% NaCI/water solution and the phosphate salt bowel cleanser.

[8] = Preferred Sucralose concentration in water, 0.4% NaCl and 2% NaCl, approximately 40 testers (Example 9); type: in vivo, human; conditions: for Preferred Sucralose Concentration (wt %): correlation line of FIG. 1
Description: To determine the preferred concentration of Sucralose to reduce the saltiness of bowel cleansers having different perceived saltiness, varying concentrations of Sucralose were tasted in water, a 0.4% NaCI water solution, and a 2% NaCI water solution. For each solution, approximately 40 testers were asked to rate four different concentrations of Sucralose. Tables 4, 5, and 6, below, present the average test data for the water, 0.4% NaCI water solution, and 2% NaCI water solution, respectively.
FIG. 1 plots the increasing salinity of the solutions from Tables 4, 5, and 6 against the preferred concentration of Sucralose required to reduce the saltiness and increase the palatability of each solution. The graph establishes that as saltiness increases, the amount of sweetener that should be added to improve palatability linearly increases (R^2=0.997). The X-axis NaCI and the Y-axis Sucralose concentrations represented by the correlation line from FIG. 1 are presented below in Table 7.

[9] = Preferred Sucralose concentration in PEG based bowel cleanser NuLytely, thirty test subjects (Example 11); type: in vivo, human; conditions: for rating of individual test subject / rating, Average: scale 1 to 5, 5 highly preferred, PEG based bowel cleanser
Description: To determine the preferred concentration of Sucralose to reduce the saltiness of a PEG based bowel cleanser, test subjects were asked to taste unsweetened and three sweetened solutions of NuLytely®. NuLytely® is an aqueous liquid including approximately 420 g of 3350 PEG, 5.72 g of sodium bicarbonate, 11.2 g of NaCI, and 1.48 g of KCI. It has a similar perceived saltiness to the similar GoLytely®, which is an aqueous liquid including approximately 236 g of 3350 PEG, 22.74 g of sodium sulfate, 6.74 g of sodium bicarbonate, 5.86 g of NaCI, and 2.97 g of KCI. Either solution has a saltiness that approximates the 0.4% NaCl/water solution of Example 9.
Each of thirty test subjects was asked to rate the four solutions on a scale of 1 to 5 with 5 being highly preferred and 1 being least preferred. The first solution included no sweetener. The second, third, and fourth solutions included 0.01%, 0.025%, or 0.05% (w/w) of Sucralose, respectively.

Compound: CC1=CC(=O)NS(=O)(=O)O1 [Ace-K, acesulfame potassium]
stability in FLEET PHOSPHO-SODA [1]: acceptable stability
sweetener concentration providing an equivalent sweetness [2]: 0.05%
average preference value ([3]; 0.05% sweetener): 2.45
preferred sweetener concentration to decrease saltiness [4]: 0.05%
Average rating ([4]; Ace-K 0.025 % (w/w), phosphate salt bowel cleanser in water): 1.88
Average rating ([4]; Ace-K 0.05 % (w/w), phosphate salt bowel cleanser in water): 2.63
Average rating ([4]; Ace-K 0.1 % (w/w), phosphate salt bowel cleanser in water): 2.16
Average rating ([4]; Ace-K 0.2 % (w/w), phosphate salt bowel cleanser in water): 2.16
sweetness relative to sucrose / sugar [5]: about 200 times

Compound: COc1ccc(CCC(=O)c2c(O)cc(O[C@@H]3O[C@H](CO)[C@@H](O)[C@H](O)[C@H]3O[C@@H]3O[C@@H](C)[C@H](O)[C@@H](O)[C@H]3O)cc2O)cc1O [Neohesperidine Dihydrochalcone (NHDC), Neohesperidine Dihydrochalcone]
stability in FLEET PHOSPHO-SODA ([1]; sweetener in phosphate salt laxative solution): effectiveness diminished over time

Compound: O=C1NS(=O)(=O)c2ccccc21 [Saccharin]
stability in FLEET PHOSPHO-SODA [1]: acceptable stability
sweetener concentration providing an equivalent sweetness [2]: 0.083%
average preference value ([3]; 0.08% sweetener): 2.5
preferred sweetener concentration to decrease saltiness [4]: about 0.0832%
Average rating ([4]; Saccharin 0.0208 % (w/w), phosphate salt bowel cleanser in water): 2.29
Average rating ([4]; Saccharin 0.0416 % (w/w), phosphate salt bowel cleanser in water): 2.47
Average rating ([4]; Saccharin 0.0832 % (w/w), phosphate salt bowel cleanser in water): 2.47
Average rating ([4]; Saccharin 0.1664 % (w/w), phosphate salt bowel cleanser in water): 1.97
sweetness relative to sucrose / sugar [5]: about 200 times

Compound: Thaumatin [Thaumatin (Talin)]
stability in FLEET PHOSPHO-SODA [1]: effectiveness diminished over time

More lines, main results first:

stability in FLEET PHOSPHO-SODA [1]: effectiveness diminished over time
Compound: COC(=O)[C@H](Cc1ccccc1)NC(=O)[C@@H](N)CC(=O)O [Aspartame] (HELM PEPTIDE1{D.F.[CO[*:1]]}$$$$V2.0)

stability in FLEET PHOSPHO-SODA [1]: acceptable stability
Compound: OC[C@H]1O[C@H](O[C@]2(CCl)O[C@H](CCl)[C@@H](O)[C@@H]2O)[C@H](O)[C@@H](O)[C@H]1Cl [Sucralose]
sweetener concentration providing an equivalent sweetness [2]: 0.05%
average preference value ([3]; 0.05% sweetener): 3.2
preference for Sucralose over Saccharin [6]: up to 55%
number of test subjects preferring the sweetened solution ([7]; out of 19 test subjects, 2% NaCl solution with 0.13% Sucralose vs unsweetened): 17
number of test subjects preferring the sweetened cleanser ([7]; out of 20 test subjects, phosphate salt bowel cleanser with 0.13% Sucralose vs unsweetened): 18
Preferred Sucralose Concentration (wt %) ([8]; NaCl Concentration 0.0 wt %): 0.011 wt %
Preferred Sucralose Concentration (wt %) ([8]; NaCl Concentration 0.2 wt %): 0.015 wt %
Preferred Sucralose Concentration (wt %) ([8]; NaCl Concentration 0.4 wt %): 0.019 wt %
Preferred Sucralose Concentration (wt %) ([8]; NaCl Concentration 0.6 wt %): 0.023 wt %
Preferred Sucralose Concentration (wt %) ([8]; NaCl Concentration 0.8 wt %): 0.027 wt %
Preferred Sucralose Concentration (wt %) ([8]; NaCl Concentration 1.0 wt %): 0.031 wt %
Preferred Sucralose Concentration (wt %) ([8]; NaCl Concentration 1.2 wt %): 0.035 wt %
Preferred Sucralose Concentration (wt %) ([8]; NaCl Concentration 1.4 wt %): 0.038 wt %
Preferred Sucralose Concentration (wt %) ([8]; NaCl Concentration 1.6 wt %): 0.042 wt %
Preferred Sucralose Concentration (wt %) ([8]; NaCl Concentration 1.8 wt %): 0.046 wt %
Preferred Sucralose Concentration (wt %) ([8]; NaCl Concentration 2.0 wt %): 0.050 wt %
Preferred Sucralose Concentration (wt %) ([8]; NaCl Concentration 2.2 wt %): 0.054 wt %
Preferred Sucralose Concentration (wt %) ([8]; NaCl Concentration 2.4 wt %): 0.058 wt %
Preferred Sucralose Concentration (wt %) ([8]; NaCl Concentration 2.6 wt %): 0.062 wt %
Preferred Sucralose Concentration (wt %) ([8]; NaCl Concentration 2.8 wt %): 0.066 wt %
Preferred Sucralose Concentration (wt %) ([8]; NaCl Concentration 3.0 wt %): 0.070 wt %
preferred level of Sucralose ([8]; in the 0.4% NaCl solution): 0.02%
preferred level of Sucralose ([8]; in the 2% NaCl solution): 0.05%
preferred level of Sucralose ([8]; in water alone): 0.005%
preferred sweetener concentration to decrease saltiness [4]: 0.05%
Likert preferability comparison of sweeteners (FIG. 2) ([4]; phosphate salt bowel cleanser, scale 1 to 5, 5 most preferred, in words): most preferred
Average rating ([4]; Sucralose 0.0125 % (w/w), 60 mL phosphate salt bowel cleanser in 355 mL water): 2.56
Average rating ([4]; Sucralose 0.025 % (w/w), 60 mL phosphate salt bowel cleanser in 355 mL water): 2.72
Average rating ([4]; Sucralose 0.05 % (w/w), 60 mL phosphate salt bowel cleanser in 355 mL water): 3.22
Average rating ([4]; Sucralose 0.1 % (w/w), 60 mL phosphate salt bowel cleanser in 355 mL water): 2.88
preference of sweetened PEG based bowel cleanser compared with the unsweetened PEG cleanser ([9]; Sucralose-sweetened NuLytely): approximately 37%
preferred Sucralose concentration ([9]; in the PEG based bowel cleanser): 0.025%
rating of individual test subject ([9]; 0.01 % Sucralose): 4 (7×) and 2 (13×) and 3 (10×)
rating, Average ([9]; 0.01 % Sucralose): 2.80
rating of individual test subject ([9]; 0.025 % Sucralose): 4 (9×) and 2 (12×) and 3 (5×) and 1 (2×) and 5 (2×)
rating, Average ([9]; 0.025 % Sucralose): 2.90
rating of individual test subject ([9]; 0.05 % Sucralose): 2 (11×) and 1 (8×) and 5 (2×) and 4 (7×) and 3 (2×)
rating, Average ([9]; 0.05 % Sucralose): 2.47
sweetness relative to sucrose / sugar [5]: about 600 times

stability in FLEET PHOSPHO-SODA [1]: effectiveness diminished over time
Compound: OC[C@H]1O[C@@](CO)(O[C@H]2O[C@H](CO)[C@@H](O)[C@H](O)[C@H]2O)[C@@H](O)[C@@H]1O [Sucrose, reference compound]
sweetener concentration providing an equivalent sweetness [2]: 15%
average preference value ([3]; 15% sweetener): 3.3

stability in FLEET PHOSPHO-SODA [1]: effectiveness diminished over time
Compound: OC[C@H]1O[C@H](O[C@H]2O[C@H](CO)[C@@H](O)[C@H](O)[C@H]2O)[C@H](O)[C@@H](O)[C@@H]1O [Trehalose]
